Values joined by “and” are separate entries in the source; they are usually repeats but may differ in a detail not shown here. Equal entries are not always repeated.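 Where inhibition never reached the appropriate level, the endpoint shown equals the highest concentration tested. Otherwise, values were interpolated linearly from a five-concentration, 48-hour dose response in 96-well plates. The concentration for 50% growth inhibition is given as GI50. TGI: concentration producing complete growth inhibition.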
Assays:
Assay in all cases: DTP human tumour cell line panel, 48 h
[1] = test system: BT-549 breast
[2] = test system: CCRF-CEM leukemia
[3] = test system: HCT-116 colon
[4] = test system: HL-60(TB) leukemia
[5] = test system: IGROV1 ovarian
[6] = test system: NCI-H23 lung
[7] = test system: NCI-H460 lung
[8] = test system: SF-295 CNS
[9] = test system: SN12C renal
[10] = test system: SNB-75 CNS

CN(C)c1cc2c(Nc3ccc4c(cnn4Cc4ccccc4)c3)ncnc2cn1
GI50 [1]: 10.7 µM | TGI [1]: > 25 µM | GI50 [2]: 10.3 µM | TGI [2]: > 25 µM | GI50 [3]: 9.23 µM | TGI [3]: > 25 µM | GI50 [4]: 8.93 µM | TGI [4]: 23.8 µM | GI50 [5]: 5.38 µM | TGI [5]: > 23.3 µM | GI50 [6]: 9.52 µM | TGI [6]: > 25 µM | GI50 [7]: 10.3 µM | TGI [7]: > 25 µM | GI50 [8]: 7.58 µM | TGI [8]: > 23.1 µM | GI50 [9]: 12.1 µM | TGI [9]: > 25 µM | GI50 [10]: > 22 µM | TGI [10]: > 25 µM

O=C(N/N=C/c1cc(Cl)ccc1O)c1ccccc1Nc1ccnc(C(F)(F)F)c1
GI50 [1]: 1.08 µM | TGI [1]: 25.7 µM | GI50 [2]: 0.127 µM | TGI [2]: 1.51 µM | GI50 [3]: 0.27 µM | TGI [3]: 13.1 µM | GI50 [4]: 0.225 µM | TGI [4]: 0.937 µM | GI50 [5]: 0.361 µM | TGI [5]: 13.3 µM | GI50 [6]: 1.31 µM | TGI [6]: 16.3 µM | GI50 [7]: 0.323 µM | TGI [7]: 10.5 µM | GI50 [8]: 0.613 µM | TGI [8]: 13.2 µM | GI50 [9]: 1.23 µM | TGI [9]: 10.2 µM | GI50 [10]: 0.703 µM | TGI [10]: 20.8 µM

CC(C)(O)CCc1cccc(C(=O)c2cnn(-c3ccc(F)cc3)c2N)c1
GI50 [1]: > 25 µM | TGI [1]: > 25 µM | GI50 [2]: > 25 µM | TGI [2]: > 25 µM | GI50 [3]: > 25 µM | TGI [3]: > 25 µM | GI50 [4]: > 25 µM | TGI [4]: > 25 µM | GI50 [5]: > 25 µM | TGI [5]: > 25 µM | GI50 [6]: > 25 µM | TGI [6]: > 25 µM | GI50 [7]: > 25 µM | TGI [7]: > 25 µM | GI50 [8]: > 25 µM | TGI [8]: > 25 µM | GI50 [9]: > 25 µM | TGI [9]: > 25 µM | GI50 [10]: > 25 µM | TGI [10]: > 25 µM

COc1cc2c(NC3CCN(C(C)C)CC3)nc(C3CCCCC3)nc2cc1OCCCN1CCCC1
GI50 [1]: 3.85 µM | TGI [1]: 15.3 µM | GI50 [2]: 2.44 µM | TGI [2]: 6.88 µM | GI50 [3]: 3.08 µM | TGI [3]: 14.1 µM | GI50 [4]: 3.03 µM | TGI [4]: 10.9 µM | GI50 [5]: 12.5 µM | TGI [5]: 26.9 µM | GI50 [6]: 10.8 µM | TGI [6]: 25.5 µM | GI50 [7]: 3.45 µM | TGI [7]: 12.9 µM | GI50 [8]: 2.52 µM | TGI [8]: 6.55 µM | GI50 [9]: 12 µM | TGI [9]: 25.1 µM | GI50 [10]: 2.09 µM | TGI [10]: 10.8 µM

Oc1ccc(Cl)cc1Sc1cc(Cl)ccc1O
GI50 [1]: 3 µM | TGI [1]: 33.6 µM and 9.29 µM | GI50 [2]: 2.59 µM | TGI [2]: 55 µM and 12.8 µM | GI50 [3]: 2.79 µM | TGI [3]: 19.7 µM and 7.21 µM | GI50 [4]: 3.19 µM | TGI [4]: 37.3 µM and 7.52 µM | GI50 [5]: 3.52 µM | TGI [5]: 32.5 µM and 9.5 µM | GI50 [6]: 2.23 µM | TGI [6]: 24.2 µM and 7.33 µM | GI50 [7]: 3.45 µM | TGI [7]: 24.8 µM and 9.2 µM | GI50 [8]: 2.37 µM | TGI [8]: 30.9 µM and 6.43 µM | GI50 [9]: 3.16 µM | TGI [9]: 27.4 µM and 10.4 µM | GI50 [10]: 2.94 µM | TGI [10]: 36.4 µM and 10.6 µM

C=C1C(=O)O[C@@H]2CC(CO)=C([C@@H](C)CCCO)[C@@H](OC(=O)/C(C)=C\C)[C@H]12
TGI [1]: > 90.6 µM | TGI [2]: 10 µM | TGI [3]: 26.5 µM | TGI [4]: 4.86 µM | TGI [5]: 35 µM | TGI [6]: 38.8 µM | TGI [7]: 48.2 µM | TGI [8]: > 100 µM | TGI [9]: 43.5 µM | TGI [10]: > 100 µM

OC(CN1CCCC2CCCCC21)c1cc2ccccc2c2ccccc12 (centres undefined)
GI50 [1]: 1.54 µM | TGI [1]: 4.06 µM | GI50 [2]: 1.87 µM | TGI [2]: 5.2 µM | GI50 [3]: 1.29 µM | TGI [3]: 2.56 µM | GI50 [4]: 2.02 µM | TGI [4]: 3.76 µM | GI50 [5]: 2.59 µM | TGI [5]: 8.66 µM | GI50 [6]: 2.14 µM | TGI [6]: 7.14 µM | GI50 [7]: 1.83 µM | TGI [7]: 3.53 µM | GI50 [8]: 1.45 µM | TGI [8]: 3.21 µM | GI50 [9]: 3.38 µM | TGI [9]: 13.4 µM | GI50 [10]: 1.9 µM | TGI [10]: 6.83 µM

CN(C)C(=S)/N=c1\ssc(=S)n1Cc1ccco1
TGI [1]: 84.8 µM | TGI [2]: 42.3 µM | TGI [3]: > 72 µM | TGI [4]: 8.2 µM | TGI [5]: > 100 µM | TGI [6]: 45.6 µM | TGI [7]: > 64.8 µM | TGI [8]: > 23 µM | TGI [9]: > 100 µM | TGI [10]: > 23.9 µM

C(=C\c1ccncc1)/c1ccncc1
GI50 [1]: > 100 µM | TGI [1]: > 100 µM | GI50 [2]: > 100 µM | TGI [2]: > 100 µM | GI50 [3]: > 100 µM | TGI [3]: > 100 µM | GI50 [4]: > 100 µM | TGI [4]: > 100 µM | GI50 [5]: > 100 µM | TGI [5]: > 100 µM | GI50 [6]: > 100 µM | TGI [6]: > 100 µM | GI50 [7]: > 100 µM | TGI [7]: > 100 µM | GI50 [8]: > 100 µM | TGI [8]: > 100 µM | GI50 [9]: > 100 µM | TGI [9]: > 100 µM | GI50 [10]: > 100 µM | TGI [10]: > 100 µM

O=C(NCc1ccco1)C1CCN(S(=O)(=O)c2ccc(Cl)cc2)CC1
GI50 [1]: > 100 µM | TGI [1]: > 100 µM | GI50 [2]: 83.8 µM | TGI [2]: > 100 µM | GI50 [3]: 59.8 µM | TGI [3]: > 100 µM | GI50 [4]: > 100 µM | TGI [4]: > 100 µM | GI50 [5]: > 100 µM | TGI [5]: > 100 µM | GI50 [6]: > 100 µM | TGI [6]: > 100 µM | GI50 [7]: 47.5 µM | TGI [7]: > 100 µM | GI50 [8]: 81.6 µM | TGI [8]: > 100 µM | GI50 [9]: > 100 µM | TGI [9]: > 100 µM | GI50 [10]: > 100 µM | TGI [10]: > 100 µM

NC(Cc1cccnn1)C(=O)O (centres undefined)
TGI [1]: > 100 µM | TGI [2]: > 100 µM | TGI [3]: > 100 µM | TGI [4]: > 100 µM | TGI [5]: > 100 µM | TGI [6]: > 100 µM | TGI [7]: > 100 µM | TGI [8]: > 100 µM | TGI [9]: > 100 µM | TGI [10]: > 100 µM

CCC[n+]1cc2cc3c(cc2c2c1-c1cc4c(cc1C2)OCO4)OCO3 (tested in a mixture with another compound)
GI50 [1]: 0.312 µM | TGI [1]: 1.82 µM | GI50 [2]: 2.38 µM | TGI [2]: 15 µM | GI50 [3]: 0.758 µM | TGI [3]: 11.3 µM | GI50 [4]: 2.98 µM | TGI [4]: 14.8 µM | TGI [5]: 7.81 µM | GI50 [6]: 0.679 µM | TGI [6]: 3.02 µM | GI50 [7]: 0.337 µM | TGI [7]: 4.39 µM | GI50 [8]: 0.47 µM | TGI [8]: 6.37 µM | GI50 [9]: 0.0664 µM | TGI [9]: 0.777 µM | GI50 [10]: 0.403 µM | TGI [10]: 1.38 µM

O=C1C(Cl)=C(Nc2cc(Cl)ccc2O)C(=O)N1Cc1ccccc1
GI50 [1]: 20.5 µM | TGI [1]: 44.3 µM | GI50 [2]: 12.5 µM | TGI [2]: 54.9 µM | GI50 [3]: 19.4 µM | TGI [3]: 35.6 µM | GI50 [4]: 25.6 µM | TGI [4]: 67.1 µM | GI50 [5]: 5.53 µM | TGI [5]: 26.4 µM | GI50 [6]: 16.6 µM | TGI [6]: 31.5 µM | GI50 [7]: 17.7 µM | TGI [7]: 34.3 µM | GI50 [8]: 18.3 µM | TGI [8]: 38.4 µM | GI50 [9]: 19.5 µM | TGI [9]: 34.4 µM | GI50 [10]: 27.5 µM | TGI [10]: 64.6 µM
